The text below walks through data of ChEMBL document CHEMBL3817748, “Identification of novel peptoid agonists of fibroblast growth factor receptor using microarray-based screening” (Medchemcomm, 2016).

For experiment [1], the species on record is Homo sapiens. Description: Binding affinity to Fc-tagged FGFR1alpha (unknown origin) at 100 uM after 1 hr by Texas-red labeled anti-Fc detection based microarray assay.
The species entered for experiment [2] is Homo sapiens. Kind of experiment: Binding affinity to Fc-tagged FGFR1alpha (unknown origin) at 50 uM after 1 hr by Texas-red labeled anti-Fc detection based microarray assay.
Experiment [3] is filed under the species Homo sapiens. Kind of experiment: Binding affinity to Fc-tagged FGFR1alpha (unknown origin) at 150 uM by Texas-red labeled anti-Fc detection based fluorescence microscopic analysis.
For experiment [4], the target named is Fibroblast growth factor receptor 2 (Homo sapiens) (UniProt P21802). Kind of experiment: Agonist activity at FGFR2 in human MDA231 cells assessed as increase in Akt phosphorylation at 15 uM after 10 mins by Western blot analysis. The format is cell-based. A general note: In western blotting, separated proteins are transferred to a membrane and probed.
Sequence of Fibroblast growth factor receptor 2 (Homo sapiens) (P21802 22-821 limits assumed): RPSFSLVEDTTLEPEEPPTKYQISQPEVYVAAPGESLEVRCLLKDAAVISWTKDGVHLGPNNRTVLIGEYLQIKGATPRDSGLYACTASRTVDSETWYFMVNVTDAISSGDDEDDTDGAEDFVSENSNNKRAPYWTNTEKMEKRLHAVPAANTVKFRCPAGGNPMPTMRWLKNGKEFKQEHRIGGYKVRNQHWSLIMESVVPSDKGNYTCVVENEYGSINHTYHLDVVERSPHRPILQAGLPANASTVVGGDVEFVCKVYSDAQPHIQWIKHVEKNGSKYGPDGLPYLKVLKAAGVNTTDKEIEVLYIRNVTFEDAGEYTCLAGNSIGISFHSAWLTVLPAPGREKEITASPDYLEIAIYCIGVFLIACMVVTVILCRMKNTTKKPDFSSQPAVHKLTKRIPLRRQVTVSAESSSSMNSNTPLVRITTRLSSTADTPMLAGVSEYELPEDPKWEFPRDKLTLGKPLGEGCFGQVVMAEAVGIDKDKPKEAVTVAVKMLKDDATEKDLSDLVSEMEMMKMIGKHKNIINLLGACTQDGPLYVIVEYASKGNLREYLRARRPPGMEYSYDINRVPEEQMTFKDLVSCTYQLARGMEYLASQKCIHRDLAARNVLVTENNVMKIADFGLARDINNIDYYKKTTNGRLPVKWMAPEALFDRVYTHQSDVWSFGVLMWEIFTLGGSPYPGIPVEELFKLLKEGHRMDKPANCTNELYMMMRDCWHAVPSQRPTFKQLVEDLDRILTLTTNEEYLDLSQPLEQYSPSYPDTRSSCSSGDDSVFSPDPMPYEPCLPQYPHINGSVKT
Experiment [5] has the same target. Description: Agonist activity at FGFR2 in human MDA231 cells assessed as increase in ERK phosphorylation at 15 uM after 10 mins by Western blot analysis. In kind it is cell-based.
The target in experiment [6] is Fibroblast growth factor receptor 1 (Mus musculus) (UniProt P16092). Description: Agonist activity at FGFR1 in mouse NIH-3T3 cells assessed as increase in Akt phosphorylation at 15 uM after 10 mins by Western blot analysis. In kind it is cell-based. Conditions: NIH3T3.
Sequence of Fibroblast growth factor receptor 1 (Mus musculus) (P16092 whole entry): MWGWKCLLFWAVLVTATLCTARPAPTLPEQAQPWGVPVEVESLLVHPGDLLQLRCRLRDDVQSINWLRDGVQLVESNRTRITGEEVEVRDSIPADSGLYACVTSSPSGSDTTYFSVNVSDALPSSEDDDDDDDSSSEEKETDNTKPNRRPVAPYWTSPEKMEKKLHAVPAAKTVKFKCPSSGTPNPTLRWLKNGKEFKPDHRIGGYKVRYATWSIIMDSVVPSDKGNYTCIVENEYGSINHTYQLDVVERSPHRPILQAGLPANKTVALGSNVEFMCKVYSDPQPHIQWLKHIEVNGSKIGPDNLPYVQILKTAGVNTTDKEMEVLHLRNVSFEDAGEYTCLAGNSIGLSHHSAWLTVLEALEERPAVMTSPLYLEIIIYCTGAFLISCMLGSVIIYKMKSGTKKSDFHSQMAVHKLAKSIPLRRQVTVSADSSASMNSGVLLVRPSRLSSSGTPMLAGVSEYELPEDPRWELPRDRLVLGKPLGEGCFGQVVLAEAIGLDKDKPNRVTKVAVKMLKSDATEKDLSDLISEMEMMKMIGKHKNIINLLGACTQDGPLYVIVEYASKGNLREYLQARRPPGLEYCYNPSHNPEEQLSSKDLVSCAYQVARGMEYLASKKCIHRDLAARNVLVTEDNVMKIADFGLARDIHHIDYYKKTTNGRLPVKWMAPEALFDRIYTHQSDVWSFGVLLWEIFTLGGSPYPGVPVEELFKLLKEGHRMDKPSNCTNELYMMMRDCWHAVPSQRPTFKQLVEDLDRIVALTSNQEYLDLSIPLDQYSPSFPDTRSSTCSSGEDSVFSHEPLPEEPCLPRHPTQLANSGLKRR
Experiment [7] is filed under the species Homo sapiens. Kind of experiment: Binding affinity to Fc-tagged FGFR1alpha (unknown origin) at 25 uM after 1 hr by Texas-red labeled anti-Fc detection based microarray assay.
Experiment [8] has as its target Fibroblast growth factor receptor 1 (Mus musculus) (UniProt P16092). Kind of experiment: Agonist activity at FGFR1 in mouse NIH-3T3 cells assessed as increase in ERK phosphorylation at 15 uM after 10 mins by Western blot analysis. The format is cell-based. Conditions: NIH3T3.
The species named for experiment [9] is Homo sapiens. Description: Binding affinity to Fc-tagged FGFR1alpha (unknown origin) uM after 1 hr by FITC-labeled anti-Fc detection based microarray assay.
The test system of experiment [10] is MCF7. Description: Agonist activity at FGFR1alpha in human MCF7 cells assessed as increase in ERK phosphorylation at 15 uM after 10 mins by Western blot analysis. The format is cell-based.
In experiment [11] the target is Fibroblast growth factor receptor 1 (Homo sapiens) (UniProt P11362). Kind of experiment: Agonist activity at FGFR1 in human MCF7 cells assessed as increase in Akt phosphorylation at 15 uM after 10 mins by Western blot analysis. The format is cell-based.
Sequence of Fibroblast growth factor receptor 1 (Homo sapiens) (P11362 22-822 limits assumed): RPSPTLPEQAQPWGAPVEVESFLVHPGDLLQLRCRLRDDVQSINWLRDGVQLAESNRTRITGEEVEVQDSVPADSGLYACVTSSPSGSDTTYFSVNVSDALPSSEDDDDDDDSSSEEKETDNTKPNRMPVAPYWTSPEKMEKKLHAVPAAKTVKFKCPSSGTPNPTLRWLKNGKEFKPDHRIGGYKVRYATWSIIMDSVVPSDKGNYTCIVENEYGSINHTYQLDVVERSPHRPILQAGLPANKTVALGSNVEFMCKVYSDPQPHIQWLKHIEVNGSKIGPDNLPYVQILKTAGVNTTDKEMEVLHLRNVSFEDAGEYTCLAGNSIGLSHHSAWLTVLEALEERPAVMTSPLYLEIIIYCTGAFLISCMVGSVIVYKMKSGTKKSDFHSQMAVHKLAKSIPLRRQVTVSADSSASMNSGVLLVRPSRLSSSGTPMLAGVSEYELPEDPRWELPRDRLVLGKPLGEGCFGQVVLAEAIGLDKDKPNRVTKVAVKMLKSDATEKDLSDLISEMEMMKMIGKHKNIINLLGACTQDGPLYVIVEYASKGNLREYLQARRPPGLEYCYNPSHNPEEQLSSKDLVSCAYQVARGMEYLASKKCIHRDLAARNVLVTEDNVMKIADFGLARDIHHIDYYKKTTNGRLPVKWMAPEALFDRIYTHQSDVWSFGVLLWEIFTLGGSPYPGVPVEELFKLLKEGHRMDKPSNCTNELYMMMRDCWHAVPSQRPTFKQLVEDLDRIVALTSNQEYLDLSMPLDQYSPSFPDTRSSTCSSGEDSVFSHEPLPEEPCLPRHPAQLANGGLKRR

Calls of active or inactive are those of the source. No cut-off for these calls is given here. *1 amine or outer side, *2 acyl side, *3 side chain or, on linkers, in order; H or OH if unused. Where a SMILES comes first, the peptide text is derived from it. [ ]: non-standard residue; d: D form. ξ: configuration not given here. Gly(N-(CH2)3N-pyrrolidone) = O=C(O)CNCCCN1CCCC1=O; Gly(N-CH2CH2C6H4-4Cl) = O=C(O)CNCCc1ccc(Cl)cc1; X1 = O=C(CN(Cc1cccc(C(F)(F)F)c1)[*:1])[*:2]; X3 = CC(c1ccccc1)N(CC(=O)[*:2])[*:1]; Nrpe = C[C@@H](NCC(=O)O)c1ccccc1; X2 = O=C(CN(CC1CCCO1)[*:1])[*:2]; NFurfurylGly = O=C(O)CNCc1ccco1; Gly(N-cPent) = O=C(O)CNC1CCCC1; NAllylGly = C=CCNCC(=O)O; Nphe = O=C(O)CNCc1ccccc1; Nlys = NCCCCNCC(=O)O; ξC = NC(CS)C(=O)O

`CC(NCC(=O)N(CC(=O)N(CC(=O)N(CC(=O)N(CC(=O)N(CC(=O)N(CCCCN)CC(=O)N(CCCCN)CC(=O)NC(CS)C(N)=O)Cc1cccc(C(F)(F)F)c1)Cc1cccc(C(F)(F)F)c1)CC1CCCO1)Cc1ccccc1)C1CCCC1)c1ccccc1` (stereo unspecified): the outcome in experiment [1] and in experiment [2] was inactive.
As to `C=CCN(CC(=O)N(CC(=O)N(CCCN1CCCC1=O)CC(=O)N(CCCCN)CC(=O)N(CCCCN)CC(=O)N[C@@H](CS)C(N)=O)CC1CCCO1)C(=O)CN(C(=O)CN(Cc1cccc(C(F)(F)F)c1)C(=O)CNCCCN1CCCC1=O)[C@H](C)c1ccccc1` (stereo partly specified) (H-[Gly(N-(CH2)3N-pyrrolidone)][X1][Nrpe][NAllylGly][X2][Gly(N-(CH2)3N-pyrrolidone)][Nlys][Nlys]C-NH2), the result in [3], in [4], in experiment [1], in experiment [5], in [6] and in experiment [7] was Active. Further, the result in [8], in [2], in experiment [9], in experiment [10] and in experiment [11] was Active.
Take `C=CCN(CC(=O)N(CC(=O)N(CCCCN)CC(=O)N(CCCCN)CC(=O)N[C@@H](CS)C(N)=O)Cc1ccco1)C(=O)CN(Cc1ccco1)C(=O)CN(CC1CCCO1)C(=O)CN(C(=O)CNCCc1ccc(Cl)cc1)C1CCCC1` (stereo partly specified) (H-[Gly(N-CH2CH2C6H4-4Cl)][Gly(N-cPent)][X2][NFurfurylGly][NAllylGly][NFurfurylGly][Nlys][Nlys]C-NH2): the outcome in experiment [4], in experiment [5], in experiment [6], in experiment [8], in [10] and in [11] was inactive. In addition, the result in experiment [1], in experiment [7], in experiment [2] and in experiment [9] was Active.
With `C=CCN(CC(=O)N(CC(=O)N(CC(=O)N(CC(=O)N(CCCCN)CC(=O)N(CCCCN)CC(=O)NC(CS)C(N)=O)C1CCCC1)Cc1ccco1)Cc1cccc(C(F)(F)F)c1)C(=O)CN(C(=O)CNCCc1ccc(Cl)cc1)C(C)c1ccccc1` (stereo unspecified) (H-[Gly(N-CH2CH2C6H4-4Cl)][X3][NAllylGly][X1][NFurfurylGly][Gly(N-cPent)][Nlys][Nlys][ξC]-NH2), the result in [1] and in [2] was inactive.
For the compound `C=CCN(CC(=O)N(CCCCN)CC(=O)N(CCCCN)CC(=O)N[C@@H](CS)C(N)=O)C(=O)CN(C(=O)CN(Cc1ccccc1)C(=O)CN(C(=O)CN(Cc1ccccc1)C(=O)CNC1CCCC1)C1CCCC1)[C@H](C)c1ccccc1` (H-[Gly(N-cPent)][Nphe][Gly(N-cPent)][Nphe][Nrpe][NAllylGly][Nlys][Nlys]C-NH2), the outcome in experiment [4], in [1], in experiment [5], in experiment [6], in experiment [7] and in experiment [8] was Active. The result in [2], in [9], in [10] and in experiment [11] was Active.
For `C=CCN(CC(=O)N(CC(=O)N(CCCCN)CC(=O)N(CCCCN)CC(=O)N[C@@H](CS)C(N)=O)[C@H](C)c1ccccc1)C(=O)CN(Cc1ccco1)C(=O)CN(C(=O)CN(Cc1cccc(C(F)(F)F)c1)C(=O)CNCc1ccccc1)C1CCCC1` (H-[Nphe][X1][Gly(N-cPent)][NFurfurylGly][NAllylGly][Nrpe][Nlys][Nlys]C-NH2), the result in experiment [3], in experiment [4], in experiment [1], in [5], in experiment [6] and in experiment [7] was Active. For the same compound, the outcome in experiment [8], in experiment [2], in experiment [9], in [10] and in [11] was Active.
